Experimental data taken from PubChem BioAssay (NCI).
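A five-concentration, 48-hour dose response in 96-well plates underlies each endpoint, interpolated linearly between surrounding concentrations. GI50: concentration for 50% inhibition of growth. TGI denotes the concentration required for complete inhibition of growth.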

What was measured:
Experiment in all cases: NCI-60 cell line screen, 48 h
T-47D breast = system: T-47D breast
NCI-H460 lung = system: NCI-H460 lung
SF-295 CNS = system: SF-295 CNS
M14 melanoma = system: M14 melanoma
NCI/ADR-RES ovarian = system: NCI/ADR-RES ovarian
OVCAR-8 ovarian = system: OVCAR-8 ovarian
NCI-H23 lung = system: NCI-H23 lung
TK-10 renal = system: TK-10 renal
EKVX NSCLC = system: EKVX NSCLC
HL-60(TB) leukemia = system: HL-60(TB) leukemia
PC-3 prostate = system: PC-3 prostate
RPMI-8226 leukemia = system: RPMI-8226 leukemia
OVCAR-4 ovarian = system: OVCAR-4 ovarian
K-562 leukemia = system: K-562 leukemia
SF-268 CNS = system: SF-268 CNS
SK-MEL-5 melanoma = system: SK-MEL-5 melanoma
ACHN renal = system: ACHN renal
DU-145 prostate = system: DU-145 prostate
SK-MEL-2 melanoma = system: SK-MEL-2 melanoma

O=C1CC(C(O)C(O)C(O)CO)CC(=O)N1 (centres undefined)
TGI (T-47D breast): > 100 µM
TGI (NCI-H460 lung): > 100 µM
TGI (SF-295 CNS): > 100 µM
TGI (M14 melanoma): > 100 µM
TGI (NCI/ADR-RES ovarian): > 100 µM
TGI (OVCAR-8 ovarian): > 100 µM
TGI (NCI-H23 lung): > 100 µM
TGI (TK-10 renal): > 100 µM
TGI (EKVX NSCLC): > 100 µM
TGI (HL-60(TB) leukemia): > 100 µM
TGI (PC-3 prostate): > 100 µM
TGI (RPMI-8226 leukemia): > 100 µM
TGI (OVCAR-4 ovarian): > 100 µM
TGI (K-562 leukemia): > 100 µM
TGI (SF-268 CNS): > 100 µM
TGI (SK-MEL-5 melanoma): > 100 µM
TGI (ACHN renal): > 100 µM
GI50 (DU-145 prostate): > 100 µM
TGI (DU-145 prostate): > 100 µM

Nc1cc(N2CCOCC2)nc(=O)n1-c1ccccc1
TGI (T-47D breast): > 100 µM
TGI (SK-MEL-2 melanoma): > 100 µM
TGI (NCI-H460 lung): > 100 µM
TGI (SF-295 CNS): > 100 µM
TGI (M14 melanoma): > 100 µM
TGI (NCI/ADR-RES ovarian): > 100 µM
TGI (OVCAR-8 ovarian): > 100 µM
TGI (NCI-H23 lung): > 100 µM
TGI (EKVX NSCLC): > 100 µM
TGI (HL-60(TB) leukemia): > 100 µM
TGI (PC-3 prostate): > 100 µM
TGI (RPMI-8226 leukemia): > 100 µM
TGI (K-562 leukemia): > 100 µM
TGI (SK-MEL-5 melanoma): > 100 µM
TGI (ACHN renal): > 100 µM
TGI (DU-145 prostate): > 100 µM

CCOC(=O)C1C(c2ccco2)C2(C#N)C(=N)OC1(C)C2(C#N)C#N (centres undefined)
TGI (T-47D breast): > 100 µM
TGI (SK-MEL-2 melanoma): > 100 µM
TGI (SF-295 CNS): > 100 µM
TGI (M14 melanoma): > 100 µM
TGI (NCI/ADR-RES ovarian): > 100 µM
TGI (OVCAR-8 ovarian): > 100 µM
TGI (NCI-H23 lung): > 100 µM
TGI (TK-10 renal): > 100 µM
TGI (EKVX NSCLC): > 100 µM
TGI (PC-3 prostate): > 100 µM
TGI (RPMI-8226 leukemia): > 100 µM
TGI (K-562 leukemia): > 100 µM
TGI (SF-268 CNS): > 100 µM
TGI (SK-MEL-5 melanoma): > 100 µM
TGI (ACHN renal): > 100 µM
TGI (DU-145 prostate): > 100 µM

NNC(=O)CC(=O)Nc1ccccc1Cl
TGI (T-47D breast): > 100 µM
TGI (SK-MEL-2 melanoma): > 100 µM
TGI (NCI-H460 lung): > 100 µM
TGI (SF-295 CNS): > 100 µM
TGI (NCI/ADR-RES ovarian): > 100 µM
TGI (OVCAR-8 ovarian): > 100 µM
TGI (NCI-H23 lung): > 100 µM
TGI (TK-10 renal): > 100 µM
TGI (EKVX NSCLC): > 100 µM
TGI (HL-60(TB) leukemia): > 100 µM
TGI (PC-3 prostate): > 100 µM
TGI (RPMI-8226 leukemia): > 100 µM
TGI (OVCAR-4 ovarian): > 100 µM
TGI (K-562 leukemia): > 100 µM
TGI (SF-268 CNS): > 100 µM
TGI (SK-MEL-5 melanoma): > 100 µM
TGI (ACHN renal): > 100 µM
TGI (DU-145 prostate): > 100 µM

COc1ccc2c(c1)OCC1=C2Oc2ccccc2C1
TGI (T-47D breast): > 100 µM
TGI (SK-MEL-2 melanoma): 77.5 µM
TGI (SF-295 CNS): > 100 µM
TGI (M14 melanoma): > 100 µM
TGI (NCI/ADR-RES ovarian): > 100 µM
TGI (OVCAR-8 ovarian): > 100 µM
TGI (NCI-H23 lung): > 100 µM
TGI (TK-10 renal): > 100 µM
TGI (EKVX NSCLC): > 100 µM
TGI (HL-60(TB) leukemia): > 100 µM
TGI (PC-3 prostate): > 100 µM
TGI (RPMI-8226 leukemia): > 100 µM
TGI (OVCAR-4 ovarian): > 100 µM
TGI (K-562 leukemia): > 100 µM
TGI (SF-268 CNS): > 100 µM
TGI (SK-MEL-5 melanoma): 28.3 µM
TGI (ACHN renal): > 100 µM
TGI (DU-145 prostate): > 100 µM

CCOP(=O)(OCC)c1cc2cc(O)ccc2oc1=O
TGI (T-47D breast): > 100 µM
TGI (NCI-H460 lung): > 100 µM
TGI (SF-295 CNS): > 100 µM
TGI (M14 melanoma): > 100 µM
TGI (NCI/ADR-RES ovarian): > 100 µM
TGI (OVCAR-8 ovarian): > 100 µM
TGI (NCI-H23 lung): > 100 µM
TGI (TK-10 renal): > 100 µM
TGI (EKVX NSCLC): > 100 µM
TGI (HL-60(TB) leukemia): > 100 µM
TGI (PC-3 prostate): > 100 µM
TGI (RPMI-8226 leukemia): > 100 µM
TGI (OVCAR-4 ovarian): > 100 µM
TGI (K-562 leukemia): > 100 µM
TGI (SF-268 CNS): > 100 µM
TGI (SK-MEL-5 melanoma): > 100 µM
TGI (ACHN renal): > 100 µM
TGI (DU-145 prostate): > 100 µM

CCCCC1CCCCCCc2[nH]c(/C=C3\N=C(c4ccc[nH]4)C=C3OC)cc21 (centres undefined)
TGI (T-47D breast): 2.06 µM
TGI (SK-MEL-2 melanoma): < 0.0237 µM
TGI (NCI-H460 lung): 2.92 µM
TGI (SF-295 CNS): 1.17 µM
TGI (NCI/ADR-RES ovarian): 0.806 µM
TGI (OVCAR-8 ovarian): 1.33 µM
TGI (NCI-H23 lung): 1.28 µM
TGI (TK-10 renal): 3.18 µM
TGI (EKVX NSCLC): 1.73 µM
TGI (HL-60(TB) leukemia): 0.0103 µM
TGI (PC-3 prostate): 2.09 µM
TGI (RPMI-8226 leukemia): 0.226 µM
TGI (OVCAR-4 ovarian): 4.23 µM
TGI (K-562 leukemia): 1.28 µM
TGI (SF-268 CNS): 2.13 µM
TGI (SK-MEL-5 melanoma): 0.107 µM
TGI (ACHN renal): 1.12 µM
TGI (DU-145 prostate): 3.96 µM

CSC1=C(C(=O)N(COCC[Si](C)(C)C)c2ccccc2Br)CCC(C(C)(C)C)C1 (centres undefined)
TGI (T-47D breast): 34.3 µM
TGI (SK-MEL-2 melanoma): 31.7 µM
TGI (NCI-H460 lung): 44.1 µM
TGI (SF-295 CNS): 25.6 µM
TGI (M14 melanoma): 76.3 µM
TGI (NCI/ADR-RES ovarian): > 100 µM
TGI (OVCAR-8 ovarian): > 100 µM
TGI (NCI-H23 lung): > 100 µM
TGI (TK-10 renal): > 100 µM
TGI (EKVX NSCLC): 37.8 µM
TGI (HL-60(TB) leukemia): 11.8 µM
TGI (PC-3 prostate): > 100 µM
TGI (RPMI-8226 leukemia): > 100 µM
TGI (OVCAR-4 ovarian): > 100 µM
TGI (K-562 leukemia): 29.1 µM
TGI (SK-MEL-5 melanoma): 27.2 µM
TGI (ACHN renal): 51.2 µM
TGI (DU-145 prostate): > 100 µM

COc1c(C(=O)/C(=N/Nc2cccc(Cl)c2)C(C)=O)c(O)c(OC)c2occc12
TGI (T-47D breast): 88.9 µM
TGI (SK-MEL-2 melanoma): > 100 µM
TGI (NCI-H460 lung): > 100 µM
TGI (SF-295 CNS): > 100 µM
TGI (M14 melanoma): > 100 µM
TGI (NCI/ADR-RES ovarian): > 100 µM
TGI (OVCAR-8 ovarian): > 100 µM
TGI (NCI-H23 lung): > 100 µM
TGI (TK-10 renal): > 100 µM
TGI (EKVX NSCLC): > 100 µM
TGI (HL-60(TB) leukemia): > 100 µM
TGI (PC-3 prostate): > 100 µM
TGI (RPMI-8226 leukemia): > 100 µM
TGI (K-562 leukemia): > 100 µM
TGI (SF-268 CNS): > 100 µM
TGI (SK-MEL-5 melanoma): > 100 µM
TGI (ACHN renal): > 100 µM
TGI (DU-145 prostate): > 100 µM

O=C(N/C(=C\NC1=NCCS1)C(=O)N1CSC[C@@H]1C(=O)O)c1ccccc1
TGI (T-47D breast): > 100 µM
TGI (NCI-H460 lung): > 100 µM
TGI (SF-295 CNS): > 100 µM
TGI (M14 melanoma): > 100 µM
TGI (NCI/ADR-RES ovarian): > 100 µM
TGI (OVCAR-8 ovarian): > 100 µM
TGI (NCI-H23 lung): > 100 µM
TGI (TK-10 renal): > 100 µM
TGI (EKVX NSCLC): > 100 µM
TGI (HL-60(TB) leukemia): > 100 µM
TGI (PC-3 prostate): > 100 µM
TGI (RPMI-8226 leukemia): > 100 µM
TGI (OVCAR-4 ovarian): > 100 µM
TGI (K-562 leukemia): > 100 µM
TGI (SF-268 CNS): > 100 µM
TGI (SK-MEL-5 melanoma): > 100 µM
TGI (ACHN renal): > 100 µM
TGI (DU-145 prostate): > 100 µM

O=C(O)COc1cc(-c2ccccc2F)nc2cc3c(cc12)OCO3
TGI (T-47D breast): > 100 µM
TGI (SK-MEL-2 melanoma): > 100 µM
TGI (SF-295 CNS): > 100 µM
TGI (M14 melanoma): > 100 µM
TGI (NCI/ADR-RES ovarian): > 100 µM
TGI (OVCAR-8 ovarian): > 100 µM
TGI (NCI-H23 lung): > 100 µM
TGI (TK-10 renal): > 100 µM
TGI (EKVX NSCLC): > 100 µM
TGI (PC-3 prostate): > 100 µM
TGI (RPMI-8226 leukemia): > 100 µM
TGI (K-562 leukemia): > 100 µM
TGI (SF-268 CNS): > 100 µM
TGI (SK-MEL-5 melanoma): > 100 µM
TGI (ACHN renal): > 100 µM
TGI (DU-145 prostate): > 100 µM

C=C1CC(COc2ccc3c(C)c(Cl)c(=O)oc3c2)(c2ccccc2)OC1=O (centres undefined)
TGI (T-47D breast): 4.15 µM
TGI (SK-MEL-2 melanoma): 3.36 µM
TGI (NCI-H460 lung): 23.5 µM
TGI (SF-295 CNS): 22.7 µM
TGI (M14 melanoma): 2.24 µM
TGI (NCI/ADR-RES ovarian): 11.4 µM
TGI (OVCAR-8 ovarian): 5.61 µM
TGI (NCI-H23 lung): 3.84 µM
TGI (TK-10 renal): 3.18 µM
TGI (EKVX NSCLC): 31.2 µM
TGI (HL-60(TB) leukemia): 1.42 µM
TGI (PC-3 prostate): 5.49 µM
TGI (RPMI-8226 leukemia): 1.42 µM
TGI (OVCAR-4 ovarian): 3.67 µM
TGI (SF-268 CNS): 19 µM
TGI (SK-MEL-5 melanoma): 3.63 µM
TGI (ACHN renal): 6.04 µM
TGI (DU-145 prostate): 9.66 µM

CC(=O)OC(=C(C#N)C#N)c1nccnc1C(=O)O
TGI (T-47D breast): > 100 µM
TGI (SK-MEL-2 melanoma): > 100 µM
TGI (NCI-H460 lung): > 100 µM
TGI (SF-295 CNS): > 100 µM
TGI (M14 melanoma): > 100 µM
TGI (NCI/ADR-RES ovarian): > 100 µM
TGI (OVCAR-8 ovarian): > 100 µM
TGI (NCI-H23 lung): > 100 µM
TGI (EKVX NSCLC): > 100 µM
TGI (HL-60(TB) leukemia): > 100 µM
TGI (PC-3 prostate): > 100 µM
TGI (RPMI-8226 leukemia): > 100 µM
TGI (OVCAR-4 ovarian): > 100 µM
TGI (K-562 leukemia): > 100 µM
TGI (SF-268 CNS): > 100 µM
TGI (SK-MEL-5 melanoma): > 100 µM
TGI (ACHN renal): > 100 µM
TGI (DU-145 prostate): > 100 µM
